PubChem BioAssay AID1963867 (Molecular Pharmacology Branch, DTP, NCI, 2024)

System: KRAS-mutant PDC tumor spheroid with HUVEC/MSC, viability
Assay: Anticancer human tumor 327498-153-R-J2-PDC patient-derived uterine carcinosarcoma cell line growth inhibition [KRAS2]
Conditions: for IC50: curve of first compound; for viability, T/C: stronger effect = lower value
Method in brief: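 Combination screen of spheroid viability in tumor-cell co-cultures with endothelial (HUVEC) and mesenchymal stem cell stroma. Each agent was tested in half-log dilutions, topping at clinical Cmax or at 10 microM without a known Cmax.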

[1] = second compound 0.1 µM, first compound 0.0316 µM
[2] = second compound 0.1 µM, first compound 0.1 µM
[3] = second compound 0.1 µM, first compound 0.316 µM
[4] = second compound 0.1 µM, first compound 1 µM
[5] = second compound 0.1 µM, first compound 3.16 µM
[6] = second compound 0.1 µM, first compound 10 µM
[7] = second compound 0.316 µM, first compound 0.0316 µM
[8] = second compound 0.316 µM, first compound 0.1 µM
[9] = second compound 0.316 µM, first compound 0.316 µM
[10] = second compound 0.316 µM, first compound 1 µM
[11] = second compound 0.316 µM, first compound 3.16 µM
[12] = second compound 0.316 µM, first compound 10 µM
[13] = second compound 1 µM, first compound 0.0316 µM
[14] = second compound 1 µM, first compound 0.1 µM
[15] = second compound 1 µM, first compound 0.316 µM
[16] = second compound 1 µM, first compound 1 µM
[17] = second compound 1 µM, first compound 3.16 µM
[18] = second compound 1 µM, first compound 10 µM
[19] = second compound 3.16 µM, first compound 0.0316 µM
[20] = second compound 3.16 µM, first compound 0.1 µM
[21] = second compound 3.16 µM, first compound 0.316 µM
[22] = second compound 3.16 µM, first compound 1 µM
[23] = second compound 3.16 µM, first compound 3.16 µM
[24] = second compound 3.16 µM, first compound 10 µM
[25] = second compound 10 µM, first compound 0.0316 µM
[26] = second compound 10 µM, first compound 0.1 µM
[27] = second compound 10 µM, first compound 0.316 µM
[28] = second compound 10 µM, first compound 1 µM
[29] = second compound 10 µM, first compound 3.16 µM
[30] = second compound 10 µM, first compound 10 µM
[31] = second compound 0.1 µM, first compound 0.01 µM
[32] = second compound 0.316 µM, first compound 0.01 µM
[33] = second compound 1 µM, first compound 0.01 µM
[34] = second compound 3.16 µM, first compound 0.01 µM
[35] = second compound 10 µM, first compound 0.01 µM
[36] = second compound 0.1 µM, first compound 0.00316 µM
[37] = second compound 0.316 µM, first compound 0.00316 µM
[38] = second compound 1 µM, first compound 0.00316 µM
[39] = second compound 3.16 µM, first compound 0.00316 µM
[40] = second compound 10 µM, first compound 0.00316 µM
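Further: spheroids exposed to agents for seven days before reading.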
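Wherever viability, T/C is given: 100% = DMSO vehicle wells so lower means fewer viable cells.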

| SMILES | IC50 (second compound 0.1 µM) | IC50 (second compound 0.316 µM) | IC50 (second compound 1 µM) | IC50 (second compound 3.16 µM) | IC50 (second compound 10 µM) | viability, T/C [1] | viability, T/C [2] | viability, T/C [3] | viability, T/C [4] | viability, T/C [7] | viability, T/C [8] | viability, T/C [9] | viability, T/C [10] | viability, T/C [13] | viability, T/C [14] | viability, T/C [15] | viability, T/C [19] | viability, T/C [20] | viability, T/C [25] | viability, T/C [26] | also measured |
| --- | --- | --- | --- | --- | --- | --- | --- | --- | --- | --- | --- | --- | --- | --- | --- | --- | --- | --- | --- | --- | --- |
| CC(C)NCC(C(=O)N1CCN(c2ncnc3c2C(C)CC3O)CC1)c1ccc(Cl)cc1 (stereo not given) + CC1OCC2(CCN(c3cnc(Sc4ccnc(N)c4Cl)c(N)n3)CC2)C1N | 0.105 µM | < 0.0316 µM | < 0.0316 µM | < 0.0316 µM | < 0.0316 µM | 59.3% | 52.5% | 32.5% | 22.5% | 43.1% | 33% | 16.4% | 13.8% | 29.1% | 20.7% | 14.5% | 20.9% | 15.3% | 16.4% | 12.2% | viability, T/C [5]: 16.5%; viability, T/C [6]: 11.9%; viability, T/C [11]: 10.8%; viability, T/C [12]: 7.02%; viability, T/C [16]: 8.77%; viability, T/C [17]: 7.91%; viability, T/C [18]: 5.17%; viability, T/C [21]: 9.04%; viability, T/C [22]: 6.16%; viability, T/C [23]: 5.92%; viability, T/C [24]: 4.91%; viability, T/C [27]: 9.27%; viability, T/C [28]: 6.34%; viability, T/C [29]: 4.8%; viability, T/C [30]: 3.45% |
| CC1COCCN1c1cc(-c2ccnn2C)c2ccnc(-c3ccn[nH]3)c2n1 (stereo not given) + CC1OCC2(CCN(c3cnc(Sc4ccnc(N)c4Cl)c(N)n3)CC2)C1N | 0.021 µM | < 0.01 µM | < 0.01 µM | < 0.01 µM | < 0.01 µM | 39% | 8.18% | 6.79% | 8.72% | 21.5% | 8.27% | 5.01% | 7.64% | 14.8% | 7.95% | 4.88% | 12.1% | 8.55% | 13.4% | 7.85% | viability, T/C [31]: 70%; viability, T/C [5]: 6.58%; viability, T/C [32]: 37.1%; viability, T/C [11]: 4.81%; viability, T/C [33]: 31.1%; viability, T/C [16]: 4.72%; viability, T/C [17]: 4.24%; viability, T/C [34]: 23.2%; viability, T/C [21]: 5.44%; viability, T/C [22]: 5.2%; viability, T/C [23]: 3.81%; viability, T/C [35]: 19.6%; viability, T/C [27]: 6.38%; viability, T/C [28]: 5.34%; viability, T/C [29]: 3.63% |
| CCN1CCN(Cc2ccc(Nc3ncc(F)c(-c4cc(F)c5nc(C)n(C(C)C)c5c4)n3)nc2)CC1 + CC1OCC2(CCN(c3cnc(Sc4ccnc(N)c4Cl)c(N)n3)CC2)C1N | 0.00823 µM | < 0.00316 µM | < 0.00316 µM | < 0.00316 µM | < 0.00316 µM | 36.7% | 37.9% | 44.6% | 45.5% | 26.9% | 29.2% | 26.6% | 33.5% | 24.5% | 21.3% | 22% | 16.2% | 16.7% | 17.8% | 16.9% | viability, T/C [36]: 61.5%; viability, T/C [31]: 49%; viability, T/C [37]: 42.5%; viability, T/C [32]: 31.6%; viability, T/C [38]: 34.2%; viability, T/C [33]: 23.7%; viability, T/C [16]: 26.5%; viability, T/C [39]: 20%; viability, T/C [34]: 16.6%; viability, T/C [21]: 18.5%; viability, T/C [22]: 22.1%; viability, T/C [40]: 19%; viability, T/C [35]: 16.2%; viability, T/C [27]: 20.8%; viability, T/C [28]: 22% |
| CCNC(=O)CC1N=C(c2ccc(Cl)cc2)c2cc(OC)ccc2-n2c(C)nnc21 (stereo not given) + CC1OCC2(CCN(c3cnc(Sc4ccnc(N)c4Cl)c(N)n3)CC2)C1N | 0.346 µM | 0.102 µM | < 0.0316 µM | < 0.0316 µM | < 0.0316 µM | 64.3% | 68% | 49.8% | 37.8% | 51.8% | 51.5% | 37.9% | 27.9% | 42% | 35.4% | 31.7% | 31.3% | 26.1% | 20.1% | 20.7% | viability, T/C [5]: 38.8%; viability, T/C [6]: 27.5%; viability, T/C [11]: 26.2%; viability, T/C [12]: 22.4%; viability, T/C [16]: 18.3%; viability, T/C [17]: 17.8%; viability, T/C [18]: 16.8%; viability, T/C [21]: 20.4%; viability, T/C [22]: 16.9%; viability, T/C [23]: 13.6%; viability, T/C [24]: 11.8%; viability, T/C [27]: 18.2%; viability, T/C [28]: 13.9%; viability, T/C [29]: 12%; viability, T/C [30]: 10.9% |
| Cn1nccc1Nc1nccc(-c2cc3c(s2)C(C)(C)N(CCN2CCOCC2)C3=O)n1 + CC1OCC2(CCN(c3cnc(Sc4ccnc(N)c4Cl)c(N)n3)CC2)C1N | 0.644 µM | 0.0611 µM | < 0.0316 µM | < 0.0316 µM | < 0.0316 µM | 74.2% | 60.7% | 59.1% | 45.6% | 53.4% | 47% | 43.2% | 40.4% | 37.8% | 39.9% | 32.1% | 30.3% | 29.7% | 23.3% | 22.2% | viability, T/C [5]: 39.1%; viability, T/C [6]: 36.5%; viability, T/C [11]: 38.1%; viability, T/C [12]: 27.6%; viability, T/C [16]: 30.8%; viability, T/C [17]: 28.6%; viability, T/C [18]: 26.4%; viability, T/C [21]: 25.3%; viability, T/C [22]: 22.2%; viability, T/C [23]: 21.9%; viability, T/C [24]: 19.9%; viability, T/C [27]: 16.9%; viability, T/C [28]: 15.8%; viability, T/C [29]: 17.1%; viability, T/C [30]: 15.9% |
| Cn1ncnc1[C@H]1c2n[nH]c(=O)c3cc(F)cc(c23)N[C@@H]1c1ccc(F)cc1 + CC1OCC2(CCN(c3cnc(Sc4ccnc(N)c4Cl)c(N)n3)CC2)C1N | 0.0109 µM | 0.00114 µM | < 0.000316 µM | < 0.000316 µM | < 0.000316 µM | 31.4% | 18% |  |  | 23.3% | 15.6% |  |  | 15.6% | 13.2% |  | 11.2% | 9.64% | 12.4% | 8.58% | viability, T/C (second compound 0.1 µM, first compound 0.000316 µM): 71.8%; viability, T/C (second compound 0.1 µM, first compound 0.001 µM): 68.1%; viability, T/C [36]: 59.4%; viability, T/C [31]: 55.2%; viability, T/C (second compound 0.316 µM, first compound 0.000316 µM): 58%; viability, T/C (second compound 0.316 µM, first compound 0.001 µM): 51.1%; viability, T/C [37]: 40.7%; viability, T/C [32]: 38.2%; viability, T/C (second compound 1 µM, first compound 0.000316 µM): 45.5%; viability, T/C (second compound 1 µM, first compound 0.001 µM): 37.2%; viability, T/C [38]: 26.6%; viability, T/C [33]: 21.4%; viability, T/C (second compound 3.16 µM, first compound 0.000316 µM): 30%; viability, T/C (second compound 3.16 µM, first compound 0.001 µM): 32.2%; viability, T/C [39]: 25%; viability, T/C [34]: 19.2%; viability, T/C (second compound 10 µM, first compound 0.000316 µM): 29.5%; viability, T/C (second compound 10 µM, first compound 0.001 µM): 27.1%; viability, T/C [40]: 21.9%; viability, T/C [35]: 15.5% |
